The assay concerns the target T1, CD80-CD28 interaction (Homo sapiens, UniProt P33681).
T1 construct: mouse Fab fragment (fusion partner)
T1 sequence (P33681 35-242 limits assumed): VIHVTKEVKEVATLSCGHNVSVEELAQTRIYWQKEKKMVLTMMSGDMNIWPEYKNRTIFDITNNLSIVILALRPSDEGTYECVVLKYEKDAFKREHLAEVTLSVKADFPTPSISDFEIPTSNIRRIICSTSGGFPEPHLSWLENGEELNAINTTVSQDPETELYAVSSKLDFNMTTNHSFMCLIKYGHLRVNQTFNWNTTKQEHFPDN
As to the kind of experiment: cell free Homogenous Time Resolved Fluorescence (HTRF) assay, inhibition of the CD80-CD28 interaction. The class given is binding. The protocol: The examples described above were tested in a cell free Homogenous Time Resolved Fluorescence (HTRF) assay to determine their activity as inhibitors of the CD80-CD28 interaction.
In the assay, europium and allophycocyanin (APC) are associated with CD28 and CD80 indirectly (through antibody linkers) to form a complex, which brings the europium and APC into close proximity to generate a signal. The complex comprises the following six proteins: fluorescent label 1, linker antibody 1, CD28 fusion protein, CD80 fusion protein, linker antibody 2, and fluorescent label 2. The table below describes these reagents in greater detail.
On formation of the complex, europium and APC are brought into proximity and a signal is generated.
Non-specific interaction was measured by substituting a mouse Fab fragment (C215) for the CD80 mouse Fab fragment fusion protein (1.9 μg/ml). The assay was carried out in black 384 well plates in a final volume of 30 μl. Assay buffer: 50 mM Tris-HCl, 150 mM NaCl pH7.8, containing 0.1% BSA (w/v) added just prior to use.
Compounds were added to the above reagents in a concentration series ranging between 100 μM-1.7 nM. The reaction was incubated for 4 hours at room temperature. Dual measurements were made using a Wallac Victor 1420 Multilabel Counter. First measurement: excitation 340 nm, emission 665 nm, delay 50 μs, window time 200 μs. second measurement: excitation 340 nm, emission 615 nm, delay 50 μs, window time 200 μs. Counts were automatically corrected for fluorescence crossover, quenching and background.
Background: TR-FRET usually uses a lanthanide donor and a delayed reading to cut background.

Where [1] appears, read: 4 hours at room temperature, read-out: Activity (EC50 in summary form).

Molecules are shown by their SMILES. Structures can show the parent of a compound that is named as a salt. Where two headings read alike, the source gives them in different places.

A word on the EC50: it is the concentration at which the effect is half-maximal. In the case of `CN(CCCNCC(=O)Nc1ccc(-n2nc3c4cccc(F)c4[nH]cc-3c2=O)cc1)c1ccccc1` [Example 31], the EC50 under setting [1] is above 10000 nM.

As to `CCN(CC)CCCCNC(=O)Nc1ccc(-n2nc3c4cccc(F)c4[nH]cc-3c2=O)cc1` [Example 158], the EC50 under setting [1] was below 1000 nM.

Consider `CN(C)CCCNC(=O)c1ccc(-n2nc3c4cccc(F)c4[nH]cc-3c2=O)cc1` [Example 66, N-(3-Dimethylaminopropyl)-4-(6-fluoro-3-oxo-3,5-dihydro-pyrazolo[4,3-c]quinolin-2-yl]-benzamide hydrochloride], for which the EC50 under setting [1] was below 1000 nM.

Regarding `CN1C(C)(C)CC(NC(=O)c2ccc(-n3nc4c5cccc(F)c5[nH]cc-4c3=O)cc2)CC1(C)C` [Example 115], the EC50 under setting [1] is below 1000 nM.

Turning to `O=C(NCCCNC1CCCCC1)c1ccc(-n2nc3c4cccc(F)c4scc-3c2=O)cc1` [Example 170, N-[(cyclohexylamino)propyl]-4-(6-fluoro-3-oxothiochromeno[4,3-c]pyrazol-2(3H)-yl)benzamide], the EC50 under setting [1] lay within 1000 to 10000 nM.

Regarding `CN1CCN(CCCNC(=O)c2ccc(-n3nc4c5ccccc5[nH]cc-4c3=O)cc2)CC1` [Example 93], the EC50 under setting [1] lay in the range of 1000 to 10000 nM.

Regarding `CCNC(=O)c1ccc(-n2nc3c4cccc(F)c4[nH]cc-3c2=O)cc1` [Example 77], under setting [1], the EC50 was below 1000 nM.

In the case of `COCCCNC(=O)c1cccc(-n2nc3c4cccc(F)c4[nH]cc-3c2=O)c1` [Example 50, 3-(6-Fluoro-3-oxo-3,5-dihydro-pyrazolo[4,3-c]quinolin-2-yl)-N-(3-methoxy-propyl)-benzamide], the EC50 under setting [1] was in the range of 1000 to 10000 nM.

As to `O=C(NCC1CCCCC1)c1ccc(-n2nc3c4cccc(F)c4[nH]cc-3c2=O)cc1` [Example 76], the EC50 under setting [1] lay within 1000 to 10000 nM.

Take `O=C(CN1CCN(C2CCCCCC2)CC1)Nc1ccc(-n2nc3c4cccc(F)c4[nH]cc-3c2=O)cc1` [Example 34]: under setting [1], the EC50 was below 1000 nM.

For `CCN(CC)CCCC(C)NC(=O)c1ccc(-n2nc3c4cccc(F)c4[nH]cc-3c2=O)cc1` (centres unmarked) [Example 97], the EC50 under setting [1] is below 1000 nM.

In the case of `CC(N)C(=O)Nc1ccc(-n2nc3c4cccc(F)c4[nH]cc-3c2=O)cc1` (centres unmarked) [Example 46], under setting [1], the EC50 was below 1000 nM.

`CCN(CC)C(=O)c1cccc(-n2nc3c4cccc(F)c4[nH]cc-3c2=O)c1` [Example 60]: the EC50 under setting [1] is above 10000 nM.

With `O=C(Nc1ccc(-n2nc3c4cccc(F)c4[nH]cc-3c2=O)cc1)c1ccc(N2CCOCC2)nc1` [Example 11], under setting [1], the EC50 was above 10000 nM.

For `O=C(NCCN1CCN(Cc2ccccc2)CC1)c1ccc(-n2nc3c4ccccc4[nH]cc-3c2=O)cc1` [Example 94], the EC50 under setting [1] was 1000 to 10000 nM.

`CN1C(C)(C)CC(NC(=O)c2ccc(-n3nc4c5ccccc5[nH]c(C5CC5)c-4c3=O)cc2)CC1(C)C` [Example 129]: under setting [1], the EC50 was below 1000 nM.

In the case of `O=C(CC1CCCC1)Nc1ccc(-n2nc3c4cccc(F)c4[nH]cc-3c2=O)cc1` [Example 19], under setting [1], the EC50 lay within 1000 to 10000 nM.

In the case of `O=C(NCCCN1CCN(Cc2c(F)cccc2Cl)CC1)c1ccc(-n2nc3c4cccc(F)c4[nH]cc-3c2=O)cc1` [Example 95], under setting [1], the EC50 was below 1000 nM.

Regarding `CN(C)CCCNC(=O)c1cccc(-n2nc3c4cccc(F)c4[nH]cc-3c2=O)c1` [Example 54], the EC50 under setting [1] lay within 1000 to 10000 nM.

Regarding `O=C(NCCc1cccnc1)c1ccc(-n2nc3c4cccc(F)c4[nH]c(C4CC4)c-3c2=O)cc1` [Example 139], the EC50 under setting [1] was above 10000 nM.

Regarding `CN1C(C)(C)CC(NC(=O)c2ccc(-n3nc4c5cccc(F)c5scc-4c3=O)cc2)CC1(C)C` [Example 173, 4-(6-fluoro-3-oxothiochromeno[4,3-c]pyrazol-2(3H)-yl)-N-1,2,2,6,6-pentamethylpiperidin-4-ylbenzamide], the EC50 under setting [1] was below 1000 nM.

In the case of `CCN(CC)CCCCNC(=O)c1ccc(-n2nc3c4cccc(F)c4[nH]cc-3c2=O)cc1` [Example 124], the EC50 under setting [1] was below 1000 nM.

With `CC(C)CC(=O)Nc1ccc(-n2nc3c4cccc(F)c4[nH]cc-3c2=O)cc1` [Example 4, N-[4-(6-Fluoro-3-oxo-3,5-dihydro-pyrazolo[4,3-c]quinolin-2-yl)-phenyl]-3-methyl-butyramide], the EC50 under setting [1] lay within 1000 to 10000 nM.

`CN1C2CCC1CC(NC(=O)c1ccc(-n3nc4c5cccc(F)c5[nH]cc-4c3=O)cc1)C2` (centres unmarked) [Example 131]: the EC50 under setting [1] was below 1000 nM.

As to `COCCOCC(=O)Nc1ccc(-n2nc3c4cccc(F)c4[nH]cc-3c2=O)cc1` [Example 25], the EC50 under setting [1] was in the range of 1000 to 10000 nM.

Turning to `CCOC(=O)CNC(=O)Nc1ccc(-n2nc3c4cccc(F)c4[nH]cc-3c2=O)cc1` [Example 142, {3-[4-(6-Fluoro-3-oxo-3,5-dihydro-pyrazolo[4,3-c]quinolin-2-yl)-phenyl]-ureido} acetic acid ethyl ester], under setting [1], the EC50 is below 1000 nM.

Turning to `CCCC(C)C(=O)Nc1ccc(-n2nc3c4ccccc4[nH]cc-3c2=O)cc1` (centres unmarked) [Example 44], the EC50 under setting [1] was above 10000 nM.

With `CN(Cc1ccccc1)C(=O)c1ccc(-n2nc3c4cccc(F)c4[nH]cc-3c2=O)cc1` [Example 69], the EC50 under setting [1] was 1000 to 10000 nM.

On to `O=C(NCCCN1CCCC1)c1ccc(-n2nc3c4cccc(F)c4[nH]c(C4CC4)c-3c2=O)cc1` [Example 141], for which the EC50 under setting [1] is below 1000 nM.

Turning to `O=C(NCCCCN1CCCC1)c1ccc(-n2nc3c4cccc(F)c4[nH]cc-3c2=O)c(Cl)c1` [Example 99], the EC50 under setting [1] was in the range of 1000 to 10000 nM.

For `O=C(NCc1ccccc1)c1ccc(-n2nc3c4cccc(F)c4[nH]cc-3c2=O)cc1` [Example 68], under setting [1], the EC50 was below 1000 nM.

Regarding `O=C(CNC1CCCCNC1=O)Nc1ccc(-n2nc3c4cccc(F)c4[nH]cc-3c2=O)cc1` (centres unmarked) [Example 37], under setting [1], the EC50 was in the range of 1000 to 10000 nM.

As for `CC(=O)OC(C)(C)C(=O)Nc1ccc(-n2nc3c4cccc(F)c4[nH]cc-3c2=O)cc1` [Example 22], the concentration for a half-maximal effect (EC50) under setting [1] is below 1000 nM.

In the case of `CC(C)(C)OC(=O)N1CCC(NC(=O)c2ccc(-n3nc4c5cccc(F)c5[nH]c(C5CC5)c-4c3=O)cc2)CC1` [Example 136], the EC50 under setting [1] is 1000 to 10000 nM.

For the compound `CN(C)CCOC(=O)Nc1ccc(-n2nc3c4cccc(F)c4[nH]cc-3c2=O)cc1` [Example 152], under setting [1], the EC50 is below 1000 nM.

Regarding `O=C(NCCCCN1CCCC1)Nc1ccc(-n2nc3c4cccc(F)c4[nH]cc-3c2=O)cc1` [Example 164], under setting [1], the EC50 is below 1000 nM.

In the case of `O=C(NCCCCN1CCCC1)c1ccc(-n2nc3c4ccccc4scc-3c2=O)cc1` [Example 167, N-(pyrrolidin-1-yl-butyl)-4-(3-oxothiochromeno[4,3-c]pyrazol-2(3H)-yl)benzamide], the EC50 under setting [1] is above 10000 nM.

As to `C[N+](C)(C)CCCC(=O)Nc1ccc(-n2nc3c4cccc(F)c4[nH]cc-3c2=O)cc1` [Example 29], the EC50 is, setting by setting: under setting [1], below 1000 nM; (read-out: EC50) 950 nM.

On to `O=C(COCc1ccccc1)Nc1ccc(-n2nc3c4cccc(F)c4[nH]cc-3c2=O)cc1` [Example 8], for which, under setting [1], the EC50 was in the range of 1000 to 10000 nM.

As for `O=C(NCCCN1CCCC1=O)c1ccc(-n2nc3c4cccc(F)c4[nH]cc-3c2=O)cc1` [Example 121], the EC50 under setting [1] was in the range of 1000 to 10000 nM.

For `CCCc1c(C(=O)Nc2ccc(-n3nc4c5cccc(F)c5[nH]cc-4c3=O)cc2)cnn1-c1ccccc1` [Example 14], the EC50 under setting [1] was above 10000 nM.

`CN1C(C)(C)CC(NC(=O)c2ccc(-n3nc4c5ccccc5scc-4c3=O)cc2)CC1(C)C` [Example 168, 4-(3-oxothiochromeno[4,3-c]pyrazol-2(3H)-yl)-N-1,2,2,6,6-pentamethylpiperidin-4-ylbenzamide]: the EC50 under setting [1] fell in the range of 1000 to 10000 nM.

With `CN(C)CCCNC(=O)c1ccc(-n2nc3c4cccc(F)c4[nH]cc-3c2=O)cc1Cl` [Example 90], under setting [1], the EC50 lay in the range of 1000 to 10000 nM.

As for `CC1(C)CC(NC(=O)c2ccc(-n3nc4c5cccc(F)c5[nH]cc-4c3=O)cc2)CC(C)(C)N1` [Example 118], the EC50 under setting [1] is below 1000 nM.

With `O=C(NCCCNC1CCCCC1)c1ccc(-n2nc3c4ccccc4scc-3c2=O)cc1` [Example 166, N-[(cyclohexylamino)propyl]-4-(3-oxothiochromeno[4,3-c]pyrazol-2(3H)-yl)benzamide], the EC50 under setting [1] is below 1000 nM.

Turning to `N[C@H]1CC[C@H](NC(=O)c2cccc(-n3nc4c5cccc(F)c5[nH]cc-4c3=O)c2)CC1` [Example 55], the EC50 under setting [1] is above 10000 nM.

In the case of `CN(CC(=O)Nc1ccc(-n2nc3c4cccc(F)c4[nH]cc-3c2=O)cc1)Cc1ccccc1` [Example 49], the EC50 under setting [1] is 1000 to 10000 nM.

For the compound `CN(C)CCNC(=O)c1ccc(-n2nc3c4cccc(F)c4[nH]cc-3c2=O)cc1` [Example 71], the EC50 under setting [1] was below 1000 nM.

Regarding `CN(C)CC(C)(C)CNC(=O)c1ccc(-n2nc3c4cccc(F)c4[nH]cc-3c2=O)cc1` [Example 117], the EC50 under setting [1] is below 1000 nM.

As for `CC1CCCCN1CCCNC(=O)c1ccc(-n2nc3c4cccc(F)c4[nH]cc-3c2=O)cc1` (centres unmarked) [Example 112], under setting [1], the EC50 was below 1000 nM.

`CCN1CCCC1CNC(=O)c1ccc(-n2nc3c4cccc(F)c4[nH]cc-3c2=O)cc1` (centres unmarked) [Example 114]: the EC50 under setting [1] was below 1000 nM.

Regarding `CCN(CC)CCCCNC(=O)c1ccc(-n2nc3c4cccc(F)c4[nH]cc-3c2=O)cc1Cl` [Example 102], under setting [1], the EC50 fell in the range of 1000 to 10000 nM.

Values taken from patent US7291612B2, “Immunomodulatory compounds” (Active Biotech A.B., priority 2002, dated 2007).
